Source: patent EP0010358A1, “Beta-lactam compounds, processes for their preparation, compositions containing them, intermediates of use in their preparation and methods for the production thereof” (GLAXO GROUP LIMITED, priority 1978, dated 1980)
≈ marks a conversion by molar mass, not a printed value. Where two headings read alike, the source gives them in different places.

Tests used:
Assay in all cases: Determination of Minimum Inhibitory Concentrations (MIC), agar dilution
Type in all cases: cell-based
E. cloacae 1051E = conditions: Enterobacter cloacae
Experimental: (§1) Serial two-fold dilutions of freshly prepared test solutions were made into Oxoid No. 1 Nutrient agar with or without added enrichment and poured into petri dishes. Plates were inoculated with a multipoint inoculator with inoculum containing approximately 10^5 colony forming units of the organisms shown in the following Table, all of which organisms are clinical isolates. The MIC, quoted in the Table as µg/ml, was read after 18 hours incubation at 37°C as the lowest concentration which inhibited growth.

E. cloacae 1321E = conditions: Enterobacter cloacae
Experimental: as §1

E. coli 851E = conditions: Escherichia coli
Experimental: as §1

H. influenzae 1184E = conditions: Haemophilus influenzae
Experimental: as §1

K. aerogenes 1522E = conditions: Klebsiella aerogenes
Experimental: as §1

Micrococcus Sp 1810E = conditions: SP1810E
Experimental: as §1

S. marcescens 1324E = conditions: Serratia marcescens
Experimental: as §1

Staph. aureus 853E = conditions: Staphylococcus aureus
Experimental: as §1

[1] = E. cloacae 1051E, clinical isolate, Oxoid No. 1 Nutrient agar, approx. 10^5 colony forming units, 18 hours at 37°C, read-out: MIC
[2] = E. cloacae 1321E, clinical isolate, Oxoid No. 1 Nutrient agar, approx. 10^5 colony forming units, 18 hours at 37°C, read-out: MIC
[3] = E. coli 851E, clinical isolate, Oxoid No. 1 Nutrient agar, approx. 10^5 colony forming units, 18 hours at 37°C, read-out: MIC
[4] = H. influenzae 1184E, clinical isolate, Oxoid No. 1 Nutrient agar, approx. 10^5 colony forming units, 18 hours at 37°C, read-out: MIC
[5] = K. aerogenes 1522E, clinical isolate, Oxoid No. 1 Nutrient agar, approx. 10^5 colony forming units, 18 hours at 37°C, read-out: MIC
[6] = Micrococcus Sp 1810E, clinical isolate, Oxoid No. 1 Nutrient agar, approx. 10^5 colony forming units, 18 hours at 37°C, read-out: MIC
[7] = S. marcescens 1324E, clinical isolate, Oxoid No. 1 Nutrient agar, approx. 10^5 colony forming units, 18 hours at 37°C, read-out: MIC
[8] = Staph. aureus 853E, clinical isolate, Oxoid No. 1 Nutrient agar, approx. 10^5 colony forming units, 18 hours at 37°C, read-out: MIC

MIC (E. cloacae 1051E; [1]) [µg/mL] | MIC (E. cloacae 1321E; [2]) [µg/mL] | MIC (E. coli 851E; [3]) [µg/mL] | MIC (H. influenzae 1184E; [4]) [µg/mL] | MIC (K. aerogenes 1522E; [5]) [µg/mL] | MIC (Micrococcus Sp 1810E; [6]) [µg/mL] | MIC (S. marcescens 1324E; [7]) [µg/mL] | MIC (Staph. aureus 853E; [8]) [µg/mL] | SMILES | MIC (E. cloacae 1051E; 1051E, 18 h) [µg/mL] | MIC (E. cloacae 1321E; 1321E, 18 h) [µg/mL] | MIC (E. coli 851E; 851E, 18 h) [µg/mL] | MIC (H. influenzae 1184E; 1184E, 18 h) [µg/mL] | MIC (K. aerogenes 1522E; 1522E, 18 h) [µg/mL] | MIC (Micrococcus Sp 1810E; Micrococcus, 18 h) [µg/mL] | MIC (S. marcescens 1324E; 1324E, 18 h) [µg/mL] | MIC (Staph. aureus 853E; 853E, 18 h) [µg/mL]
1 (≈ 4.13 µM) | 1 (≈ 4.13 µM) | 1 (≈ 4.13 µM) | 2 (≈ 8.26 µM) | 2 (≈ 8.26 µM) | 0.1 (≈ 0.413 µM) | 2 (≈ 8.26 µM) | 2 (≈ 8.26 µM) | O=CNCCC1=C(C(=O)O)N2C(=O)CC2S1 (racemic) [Example 4, (5RS)-2-(2-Formamidoethyl)pen-2-em-3-carboxylic acid] |  |  |  |  |  |  |  | 
 |  |  |  |  |  |  |  | CC(=O)NCCC1=C(C(=O)[O-])N2C(=O)CC2S1.[K+] (racemic) [Example 7, Potassium (5RS)-2-(2-acetamidoethyl)pen-2-em-3-carboxylate] | 16 | 4 | 8 | 16 | 8 | 2 | 31 | 2
16 | 8 | 8 | 8 | 8 | 1 | 8 | 62 | CNC(=O)NCCC1=C(C(=O)O)N2C(=O)CC2S1 (racemic) [Example 10, Potassium (5RS)-2-(2-N-methylureidoethyl)pen-2-em-3-carboxylate] |  |  |  |  |  |  |  | 
16 | 8 | 2 | 16 | 2 | 0.2 | 8 | 0.2 | O=C(NCCC1=C(C(=O)O)N2C(=O)CC2S1)Nc1ccccc1 (racemic) [Example 11, Potassium (5RS)-2-(2-N-phenylureidoethyl)pen-2-em-3-carboxylate] |  |  |  |  |  |  |  | 
